| melting point | SMILES |
| --- | --- |
| 203 to 206 °C | Nc1nc(-c2cc(Cl)ccc2Cl)nc(N2CCN(c3ccccc3)CC2)n1 |
| 208 to 210 °C | CCC(CC)c1ccc(Cl)c2nc(Nc3cc(Cl)cc(Cl)c3)n(CCCCO)c12 |
| 255 to 257 °C | Oc1cccc(-c2ccc3nnn(Cc4ccc5ncccc5c4)c3n2)c1 |
| 92 to 93 °C | COc1cc(CO)ccc1OCc1nc(N2CCCCC2)sc1C |
| 152 to 155 °C | CCOC(C)O[C@H]1C(=O)N(C(=O)Nc2ccccc2)[C@H]1c1ccccc1 (stereo not given in full) |
| 76.5 to 80 °C | CC(C)(C)OC(=O)NC1CCN(CC23CC(c4ccccc42)c2ccc(Cl)cc23)CC1 (stereo not given) |
| 205 to 207 °C | COc1ccc2c(c1)c(Cc1nc(-c3ccc([N+](=O)[O-])cc3)cs1)c(C)n2Cc1ccc(Br)cc1 |
| 176 °C | O=C(c1cccs1)c1cccc2nc(N[C@@H]3CCc4ccccc43)ccc12 |
| 194 to 196 °C | CC1(c2ccccc2)C(=O)Nc2ccccc2C1=O (stereo not given) |
| 157 to 158 °C | CC1=C(C)C[C@H]2C(=O)CC(=O)[C@H]2C1 |
| 184 to 186 °C | O=C(Nc1ccccc1)N1CC2CCC(C1)O2 |
| 237 to 239 °C | CC1CCc2cc(C(O)C(C)N3CCC(n4c(=O)[nH]c5ccccc54)CC3)ccc2S1 (stereo not given) |
| 107 to 109 °C | CC(=O)NCC(=O)c1cccc(Cl)c1Cl |
| 230 to 233 °C | COCCn1c(C)nc2c(N)nc3ccccc3c21 |
| 120 to 124 °C | NCC1Cc2cccc(-c3cccc4ccccc34)c2O1 (stereo not given) |
| 151 to 152 °C | O=C(CCCCCOc1ccc(-c2ccccc2)cc1)NO |
| 81 to 83 °C | Cc1cc(Oc2cccc(C(F)(F)F)c2)nn1C(=O)Nc1cc(OC2CCCC2)c(Cl)cc1F |
| 257 to 258 °C | Cc1oc(-c2ccccc2)nc1COc1ccc(CC2SC(=N)NC2=O)cc1 (stereo not given) |
| 116 °C | CCOC(=O)C12CCC(=O)N1CC(=O)N2 (stereo not given) |
| 243 to 244 °C | CS(=O)(=O)c1ccc(-c2cc(C(F)(F)F)nn2-c2ccc(O)cc2)cc1 |
| 108 °C | N#CCCN1CCC2C(C1)c1ccccc1N2c1ccccc1 (stereo not given) |
| 205 to 206 °C | Nc1ccc(F)c2c1C(=O)c1ccccc1-2 |
| 114 °C | CCCCCCCCCCCCCCCCCCNC(=O)C=Cc1ccc(O)cc1 |
| 145 to 146 °C | CC1=C(C(=O)O)N2C(=O)C(NC(=O)Cc3ccc(CCl)cc3)C2SC1 (stereo not given) |

| melting point | SMILES |
| --- | --- |
| 162 to 165 °C | COc1ccc(-c2nc(C)c(C(C)=O)[nH]2)cc1 |
| 220 to 221 °C | CCCC(O)c1ccc(Cl)c2nc3n(c12)CCCN3c1ccc(Cl)cc1Cl (stereo not given) |
| 118 °C | O=C(NC(=O)C(c1ccccc1)c1ccccc1)OCCCCc1ccccc1 |
| 159 to 160 °C | O=C1N(Cc2noc(C(F)(F)F)n2)c2ccccc2C12COc1cc3c(cc12)OCCO3 (stereo not given) |
| 78 to 80 °C | COc1cc(Nc2nccc(-c3cccc(NCc4cccnc4)c3)n2)cc(OC)c1OC |
| 278 to 280 °C | O=c1[nH]c(=O)n2c3c(cccc13)Sc1ccc(C(F)(F)F)cc1-2 |
| 198 to 201 °C | Cc1ccnc2c1C(=O)c1ccccc1C2=O |
| 133 to 134 °C | CS(=O)c1ccc(C2=C(c3cc(F)cc(F)c3)C(=O)C(C)(C)O2)cc1 (stereo not given) |
| 136 to 138 °C | CCOC(=O)N1CCN(c2nc3cccccc-3n2)CC1 |
| 192 °C | CCCCSc1nc(CCC)n(Cc2ccc(-c3ccccc3S(=O)(=O)NC(=O)NCc3ccccc3)cc2)c1C(=O)C(=O)O |
| 107 to 109 °C | CC1=CC(=O)C(C)=C2CC(C)(C)N=C12 |
| 114 °C | CCC(CC)COc1ccc(S(=O)(=O)C2(C(=O)NO)CCN(Cc3ccccc3)CC2)cc1 |
| 171 to 173 °C | COC(=O)Nc1nc2ccc(Sc3ccccc3)cn2c1C(=O)C(F)(F)F |
| 174 °C | COc1ccc(C2CSc3ccccc3NC2=O)cc1OC (stereo not given) |
| 177 to 179 °C | NNN=CNCCC(=O)O |
| 221 to 225 °C | Nc1ncc(-c2ccccc2F)nc1C(=O)Nc1cccnc1 |
| 137 to 138 °C | CN(C)CCC(=O)n1cc(-c2ccccc2)c2ccccc21 |
| 144 to 145 °C | O=C1N(Cc2ccccc2)Cc2cccnc2N1c1cccc([N+](=O)[O-])c1 |
| 136 to 138 °C | CC12C=CC(=O)C=C1CCC1C2=CCC2(C)C(C(=O)CCl)=CCC12 (stereo not given) |
| 126 to 127 °C | CCOc1nn(Cc2ccc(OCc3nc(-c4ccccc4)oc3C)nc2)cc1CC(=O)O |
| 158 to 160 °C | Cc1nc2c(O[C@@H]3c4ccccc4C[C@H]3OS(C)(=O)=O)cccn2c1C=O (relative stereo) |
| 128 to 130 °C | CNC(=S)c1cnn(-c2cccc(Cl)c2)c1Cl |
| 120 to 128 °C | CC(=O)OC(C(=O)N1C(Cc2ccccc2)COC1(C)C)c1ccc(-c2ccc(-c3ccccc3)cc2)o1 (stereo not given) |
| 112 to 114 °C | CC#CCOc1ccc(S(=O)(=O)NC2(C(=O)O)CCCCC2)cc1 |

| melting point | SMILES |
| --- | --- |
| 149 to 150 °C | Cn1c(=O)ccc2cc(COc3cccc(C4(C#N)CCOCC4)c3)ccc21 |
| 200 °C | CC(Oc1ccc2nc(NC(=O)NCCN3CCOCC3)sc2c1)c1c(F)ccc(Cl)c1Cl (stereo not given) |
| 98.8 to 100 °C | CC(=O)N1CCN(CC(C)NC(=O)c2ccc3c(c2)c(-c2ccccc2)nn3C)CC1 (stereo not given) |
| 222 to 228 °C | CCOP(=O)(Cc1nnc2c(=O)[nH]c3cc(C(F)(F)F)c([N+](=O)[O-])cc3n12)OCC |
| 140 to 142 °C | N#Cc1c[nH]c(Cl)c1-c1ccccc1 |
| 169 to 170 °C | Cc1c(NC(=O)c2ccc(OC[C@@H]3CCCO3)cc2)ccc2[nH]c(CNCC(C)(C)O)cc12 |
| 120 to 122 °C | CC(Nc1nc(NN)nc(Cl)c1-c1c(F)cccc1Cl)C(F)(F)F (stereo not given) |
| 132 to 134 °C | CC(C)(CC(=O)C(=O)Nc1ccc2c(c1)COC2=O)c1ccccc1 |
| 172 to 174 °C | CCCCn1c(=O)c2cc(C(=O)OCC)cn2c2cc(Cl)ccc21 |
| 149 to 151 °C | c1cc(-c2cnn3cc(-c4ccc(OCCN5CCOCC5)cc4)cnc23)cs1 |
| 247 to 252 °C | CC1COc2c(N3CC(N)C(C(F)F)C3)c(F)cc3c(=O)c(C(=O)O)cn1c23 (stereo not given) |
| 50 to 54 °C | CCCCOC(CCN)(c1ccccc1)c1ccccc1 |
| 147 °C | CCCOc1ccc(-c2ccc(N)nn2)cc1OC |
| 82 to 83 °C | O=C1CCCc2onc(-c3ccccc3F)c21 |
| 163 °C | O=S1(=O)N[C@@H](c2cccc(Br)c2)c2ccccc21 |
| 282 to 284 °C | CNC(=O)c1ccccc1Nc1nc(Nc2cccc3c2N(C)CCNC3=O)ncc1Cl |
| 235 to 238 °C | CCN1C(=O)CCC(C)(C)c2ccc(Nc3ncc(Cl)c(Nc4c(F)cccc4OCC#N)n3)cc21 |
| 148 to 150 °C | COc1c2c(c(OC)c(OC)c1OC)CC(C(=O)O)(c1ccc(OCCCC(=O)O)cc1)C2 |
| 181 °C | COc1ccc(C(=C2CN(C(c3ccccc3)c3ccccc3)C2)S(C)(=O)=O)cc1 |
| 109 °C | CC(C)OC(=O)c1cn(-c2cccc(Cl)c2)cn1 |
| 72 to 73 °C | CN(C)CCCOc1ccc(-c2nnc(CSCCOc3ccccc3)s2)cc1 |
| 64 to 67 °C | COC(=O)C1=Cc2cccc(OCc3ccccc3)c2CC1 |
| 188 °C | Cc1cc(C)nc(OC(C)C(=O)NS(=O)(=O)c2ccccc2)n1 (stereo not given) |
| 149 to 151 °C | CN(CCc1ccccc1)S(=O)(=O)CC(=O)NO |

| melting point | SMILES |
| --- | --- |
| 206 to 208 °C | COc1cc([N+](=O)[O-])c2nccc(C)c2c1Oc1cccc(C(F)(F)F)c1 |
| 103 to 104 °C | COc1ccc(OCC(O)CNCCNc2c(C)c(=O)n(C)c(=O)n2C)cc1OC (stereo not given) |
| 79 to 81 °C | O=C(c1ccnc(Cl)c1)N1CC(c2ccc(F)cc2)C2(CCN(C/C=C/c3ccc(Cl)cc3)CC2)C1 (stereo not given) |
| 232 °C | CCOc1cc(OCC2CCN(C)CC2)c(F)c(C(Nc2ccc(C(=N)N)cc2)C(=O)O)c1 (racemic) |
| 133 to 135 °C | CCOC(=O)CCC(O)c1cnc2c(OC)cccc2c1Nc1ccccc1C (stereo not given) |
| 121 °C | COc1ccc(CCN(C)C(=O)COc2ccc([N+](=O)[O-])cc2)cc1OC |
| 140 °C | N#Cc1ccccc1-c1ccc(CC(NC(=O)Nc2ccccc2S(=O)(=O)N2CCCCC2)C(=O)O)cc1 (stereo not given) |
| 201 to 203 °C | c1cc(-c2ccc(N3CCNCC3)nc2)nc(Nc2ccc3cc[nH]c3c2)n1 |
| 179 to 180 °C | CCN(CC)C(=O)Nc1ccc2oc3c(c2c1)CCCC3 |
| 227 to 229 °C | COC(=O)[C@@H]1Cc2cc(Cl)c(Cl)cc2[C@@H](NC(N)=O)C1 (relative stereo) |
| 160 to 162 °C | CCS(=O)(=O)N(C)C1CC(C)(C)Oc2ccc(O)cc21 (stereo not given) |
| 207 to 215 °C | CN(C)S(=O)(=O)n1c(N)nc2ccc(C(=CCl)c3ccccc3)cc21 |
| 223 °C | COc1cc(-n2c(-c3cc(-c4cnc5[nH]ccc5c4)ccn3)cn(C)c2=O)ccc1Cl |
| 182 to 184 °C | COC(=O)[C@]12OC(=O)C[C@H]1S[C@@H]1[C@H](NC(=O)COc3ccccc3)C(=O)N12 |
| 125 to 127 °C | CCCCOCCOc1ccc(-c2ccc(N(C)Cc3cnn(C)c3)c(C=CC(=O)O)c2)cc1 |
| 158 to 162 °C | CC(=O)c1ccc2c(c1O)CC(S(C)(=O)=O)CO2 (stereo not given) |
| 68 °C | CC(C)C(=O)N(Cc1ccccc1)c1nnn(Cc2ccccc2)n1 |
| 93 to 94 °C | COC(=O)NC(CCSC)C(N)=O (racemic) |
| 54 to 55.5 °C | CC(C)(C)OC(=O)NCC/C=C/c1cncnc1 |
| 90.5 to 95 °C | O=C(Nc1ccc(F)cc1F)c1ccccn1 |
| 74 to 75 °C | c1ccc2c(OC[C@H]3CCCN3c3ccnc4ncnn34)cccc2c1 |
| 115 to 116 °C | CCn1nc(-c2ccccc2)c(C(=O)CCc2ccccc2)c(N)c1=O |
| 178 °C | O=C(NCc1ccncc1)Nc1cccc2ccccc12 |
| 154 to 156 °C | FC(F)C(Cl)=NC(c1ccccc1)(c1ccccc1)c1ccccc1 |

| SMILES | melting point |
| --- | --- |
| CN1Cc2c(C#CC(C)(C)O)ncn2-c2cccc(Br)c2C1=O | 207 to 208 °C |
| CC[C@H]1[C@@H](O)C(F)(F)C(=O)N1c1ccc(C#N)c(Cl)c1 | 137 to 140 °C |
| O=C1CCC2(CCOC2=O)C(=O)C1 (stereo not given) | 145 to 148 °C |
| O=C(NCCO)c1c([N+](=O)[O-])ccc(N(CCBr)CCBr)c1[N+](=O)[O-] | 94 to 97 °C |

— a melting point compilation (Tetko et al.; mined from patent text by program, amines drawn as free bases though some values may be those of a salt)
